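Cells were grown in 96-well plates and exposed to each compound for 48 hours at five concentrations; endpoints were interpolated linearly between bracketing concentrations, or set to the highest concentration if not reached. GI50: concentration for 50% inhibition of growth. Definition used: TGI = concentration required for complete inhibition of growth.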 Where a SMILES comes first, the peptide text is derived from it. [ ]: non-standard residue; d: D form. The star is where a group is joined. ξ: configuration not given here. Boc = CC(C)(C)OC(=O)*; ξV = CC(C)C(N)C(=O)O; OBn = c1ccc(CO*)cc1
What was measured:
Assay in all cases: NCI-60 cell line screen, 48 h
[1] = system: CCRF-CEM leukemia
[2] = system: NCI-H522 lung
[3] = system: A498 renal
[4] = system: HOP-92 NSCLC
[5] = system: MOLT-4 leukemia
[6] = system: DU-145 prostate
[7] = system: NCI-H226 lung
[8] = system: OVCAR-5 ovarian
[9] = system: T-47D breast
[10] = system: NCI-H23 lung
[11] = system: TK-10 renal
[12] = system: HL-60(TB) leukemia
[13] = system: SF-295 CNS
[14] = system: UACC-62 melanoma
[15] = system: MDA-MB-435
[16] = system: SN12C renal
[17] = system: NCI-H460 lung
[18] = system: HCT-15 colon
[19] = system: NCI/ADR-RES ovarian
[20] = system: SF-539 CNS
[21] = system: SK-MEL-2 melanoma
[22] = system: SK-MEL-28 melanoma
[23] = system: IGROV1 ovarian
[24] = system: PC-3 prostate
[25] = system: EKVX NSCLC
[26] = system: HS 578T breast
[27] = system: MALME-3M melanoma
[28] = system: MDA-MB-231 breast
[29] = system: SNB-75 CNS
[30] = system: SF-268 CNS
[31] = system: CAKI-1 renal
[32] = system: HT29 colon
[33] = system: LOX IMVI melanoma
[34] = system: MCF7 breast
[35] = system: ACHN renal
[36] = system: HOP-62 NSCLC
[37] = system: KM12 colon
[38] = system: SR leukemia
[39] = system: OVCAR-4 ovarian
[40] = system: SNB-19 CNS
[41] = system: SW-620 colon
[42] = system: HCT-116 colon
[43] = system: OVCAR-3 ovarian
[44] = system: U251 CNS
[45] = system: 786-0 renal
[46] = system: SK-MEL-5 melanoma
[47] = system: SK-OV-3 ovarian
[48] = system: M14 melanoma
[49] = system: A549 NSCLC
[50] = system: UO-31 renal
[51] = system: COLO 205 colon
[52] = system: HCC-2998 colon
[53] = system: RPMI-8226 leukemia
[54] = system: K-562 leukemia

COc1ccc(-n2cc(-c3ccc(OC)c(OC)c3)[nH]c2=S)cc1Cl
GI50 [1]: > 100 µM
TGI [1]: > 100 µM
GI50 [2]: > 100 µM
TGI [2]: > 100 µM
GI50 [3]: > 100 µM
TGI [3]: > 100 µM
GI50 [4]: 37.3 µM
TGI [4]: > 100 µM
GI50 [5]: 77.4 µM
TGI [5]: > 100 µM
GI50 [6]: > 100 µM
TGI [6]: > 100 µM
GI50 [7]: > 100 µM
TGI [7]: > 100 µM
GI50 [8]: > 100 µM
TGI [8]: > 100 µM
GI50 [9]: > 100 µM
TGI [9]: > 100 µM
GI50 [10]: > 100 µM
TGI [10]: > 100 µM
GI50 [11]: > 100 µM
TGI [11]: > 100 µM
GI50 [12]: > 100 µM
TGI [12]: > 100 µM
GI50 [13]: 41 µM
TGI [13]: > 100 µM
GI50 [14]: > 100 µM
TGI [14]: > 100 µM
GI50 [15]: > 100 µM
TGI [15]: > 100 µM
GI50 [16]: > 100 µM
TGI [16]: > 100 µM
GI50 [17]: > 100 µM
TGI [17]: > 100 µM
GI50 [18]: > 100 µM
TGI [18]: > 100 µM
GI50 [19]: > 100 µM
TGI [19]: > 100 µM
GI50 [20]: 39.4 µM
TGI [20]: > 100 µM
GI50 [21]: > 100 µM
TGI [21]: > 100 µM
GI50 [22]: > 100 µM
TGI [22]: > 100 µM
GI50 [23]: > 100 µM
TGI [23]: > 100 µM
GI50 [24]: > 100 µM
TGI [24]: > 100 µM
GI50 [25]: 41.5 µM
TGI [25]: > 100 µM
GI50 [26]: 38.9 µM
TGI [26]: > 100 µM
GI50 [27]: > 100 µM
TGI [27]: > 100 µM
GI50 [28]: 61.4 µM
TGI [28]: > 100 µM
GI50 [29]: 4.75 µM
TGI [29]: 21 µM
GI50 [30]: 58.7 µM
TGI [30]: > 100 µM
GI50 [31]: > 100 µM
TGI [31]: > 100 µM
GI50 [32]: > 100 µM
TGI [32]: > 100 µM
GI50 [33]: > 100 µM
TGI [33]: > 100 µM
GI50 [34]: > 100 µM
TGI [34]: > 100 µM
GI50 [35]: > 100 µM
TGI [35]: > 100 µM
GI50 [36]: 30.2 µM
TGI [36]: > 100 µM
GI50 [37]: > 100 µM
TGI [37]: > 100 µM
GI50 [38]: > 100 µM
TGI [38]: > 100 µM
GI50 [39]: > 100 µM
TGI [39]: > 100 µM
GI50 [40]: > 100 µM
TGI [40]: > 100 µM
GI50 [41]: > 100 µM
TGI [41]: > 100 µM
GI50 [42]: > 100 µM
TGI [42]: > 100 µM
GI50 [43]: > 100 µM
TGI [43]: > 100 µM
GI50 [44]: 41.1 µM
TGI [44]: > 100 µM
GI50 [45]: 52.3 µM
TGI [45]: > 100 µM
GI50 [46]: > 100 µM
TGI [46]: > 100 µM
GI50 [47]: > 100 µM
TGI [47]: > 100 µM
GI50 [48]: > 100 µM
TGI [48]: > 100 µM
GI50 [49]: > 100 µM
TGI [49]: > 100 µM
GI50 [50]: > 100 µM
TGI [50]: > 100 µM
GI50 [51]: > 100 µM
TGI [51]: > 100 µM
GI50 [52]: > 100 µM
TGI [52]: > 100 µM
GI50 [53]: > 100 µM
TGI [53]: > 100 µM
GI50 [54]: > 100 µM
TGI [54]: > 100 µM

CC(C)C(NC(=O)CNC(=O)OC(C)(C)C)C(=O)NCC(=O)OCc1ccccc1 (stereo not drawn) (Boc-Gly-[ξV]-Gly-OBn)
GI50 [42]: 27.3 µg/mL
TGI [42]: 98.5 µg/mL

Source: PubChem BioAssay (NCI)
